Data published in patent US11203571B2, “Sulfonamides as modulators of sodium channels” (VERTEX PHARMACEUTICALS INCORPORATED, priority 2013, dated 2021).

Experiments:
human Nav1.8 = human Nav1.8 (Homo sapiens (Human), UniProt Q9Y5Y9); experiment: E-VIPR optical membrane potential assay with electrical stimulation; assay type: cell-based; conditions: HEK cells expressing human Nav1.8
Method in brief: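 HEK cells expressing human Nav1.8 were loaded with CC2-DMPE (8 μM) and DiSBAC6(3) (2.5 μM), then given compound for 20-35 min at room temperature (0.625% DMSO). Cells received a 10-s current-controlled electrical stimulus. Response was the stimulated/baseline 460/580 nm emission ratio (Rf/Ri), with tetracaine (125 μM) as positive control.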

[1] = Human liver microsome assay; assay type: in vitro ADME; conditions: 1 uM substrate, 0.5 mg/mL liver microsome, 2 mM NADPH, 37° C., referenced against time zero control
Method in brief: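 Pooled human liver microsomes (0.5 mg/mL) with 1 uM substrate (0.2% DMSO), 2 mM NADPH, 0.1 M phosphate, shaken 30 min at 37° C. Quenched with cold acetonitrile; parent quantified by LC/MS/MS. Value is % substrate remaining at 30 min versus a time-zero control without NADPH.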

human Nav1.8, sequence (Q9Y5Y9 whole entry): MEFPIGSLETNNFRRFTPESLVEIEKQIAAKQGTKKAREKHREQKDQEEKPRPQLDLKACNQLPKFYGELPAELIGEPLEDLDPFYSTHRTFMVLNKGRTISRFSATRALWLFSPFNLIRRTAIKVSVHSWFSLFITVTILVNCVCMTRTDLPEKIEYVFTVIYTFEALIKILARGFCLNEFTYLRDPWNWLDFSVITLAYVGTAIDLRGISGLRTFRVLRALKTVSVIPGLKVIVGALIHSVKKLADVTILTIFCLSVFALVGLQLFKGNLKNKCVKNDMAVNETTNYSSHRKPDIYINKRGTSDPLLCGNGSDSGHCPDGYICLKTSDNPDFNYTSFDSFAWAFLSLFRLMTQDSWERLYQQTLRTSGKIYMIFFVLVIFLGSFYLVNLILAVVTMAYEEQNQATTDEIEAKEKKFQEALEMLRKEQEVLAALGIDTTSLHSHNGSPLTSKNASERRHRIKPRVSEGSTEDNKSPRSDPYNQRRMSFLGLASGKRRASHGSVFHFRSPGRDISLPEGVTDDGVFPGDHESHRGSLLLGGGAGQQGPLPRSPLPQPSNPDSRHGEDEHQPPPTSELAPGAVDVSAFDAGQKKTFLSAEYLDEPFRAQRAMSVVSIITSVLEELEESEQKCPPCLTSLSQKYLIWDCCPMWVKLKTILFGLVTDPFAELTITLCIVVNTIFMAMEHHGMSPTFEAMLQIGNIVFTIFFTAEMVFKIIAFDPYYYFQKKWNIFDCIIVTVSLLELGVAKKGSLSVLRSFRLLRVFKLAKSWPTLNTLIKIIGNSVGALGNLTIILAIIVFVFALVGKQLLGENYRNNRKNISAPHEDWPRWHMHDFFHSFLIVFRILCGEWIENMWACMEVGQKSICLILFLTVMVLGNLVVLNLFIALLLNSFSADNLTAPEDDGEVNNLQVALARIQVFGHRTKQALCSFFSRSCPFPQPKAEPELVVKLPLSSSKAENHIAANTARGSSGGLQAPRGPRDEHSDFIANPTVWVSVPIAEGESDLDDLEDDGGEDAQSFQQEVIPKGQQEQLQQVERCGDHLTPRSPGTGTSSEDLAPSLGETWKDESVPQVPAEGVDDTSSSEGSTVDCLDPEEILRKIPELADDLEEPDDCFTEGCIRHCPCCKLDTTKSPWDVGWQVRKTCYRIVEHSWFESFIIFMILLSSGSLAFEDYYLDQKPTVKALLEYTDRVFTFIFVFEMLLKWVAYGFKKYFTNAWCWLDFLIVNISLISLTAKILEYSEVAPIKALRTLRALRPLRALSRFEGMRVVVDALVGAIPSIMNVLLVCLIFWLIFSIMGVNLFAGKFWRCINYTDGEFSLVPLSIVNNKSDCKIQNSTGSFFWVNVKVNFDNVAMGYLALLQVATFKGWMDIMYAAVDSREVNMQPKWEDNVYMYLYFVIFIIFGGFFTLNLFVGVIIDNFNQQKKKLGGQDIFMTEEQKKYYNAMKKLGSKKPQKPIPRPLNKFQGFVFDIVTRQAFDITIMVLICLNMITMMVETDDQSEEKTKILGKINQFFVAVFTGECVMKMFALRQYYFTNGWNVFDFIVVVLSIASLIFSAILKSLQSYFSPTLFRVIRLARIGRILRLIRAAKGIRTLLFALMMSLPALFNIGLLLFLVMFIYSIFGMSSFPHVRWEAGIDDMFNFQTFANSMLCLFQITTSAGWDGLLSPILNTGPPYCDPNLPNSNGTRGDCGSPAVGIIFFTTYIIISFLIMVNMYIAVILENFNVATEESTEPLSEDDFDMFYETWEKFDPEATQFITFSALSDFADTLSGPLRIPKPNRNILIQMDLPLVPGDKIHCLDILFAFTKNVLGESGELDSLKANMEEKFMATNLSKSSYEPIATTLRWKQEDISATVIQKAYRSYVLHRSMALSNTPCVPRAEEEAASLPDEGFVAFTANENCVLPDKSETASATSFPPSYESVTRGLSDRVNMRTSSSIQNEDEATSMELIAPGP

COc1ccc(F)cc1Oc1cc(C(F)(F)F)cc(C(F)(F)F)c1C(=O)Nc1cccc(S(N)(=O)=O)c1 [Compound 92, 2-(5-fluoro-2-methoxyphenoxy)-N-(3-sulfamoylphenyl)-4,6-bis(trifluoromethyl)benzamide]
IC50 (human Nav1.8): 16 nM
HLM: percent unchanged after 30 min [1]: 113%

Cc1cc(F)ccc1Oc1cc(Cl)c(Cl)cc1C(=O)Nc1cccc(S(N)(=O)=O)c1 [Compound 83, 4,5-dichloro-2-(4-fluoro-2-methylphenoxy)-N-(3-sulfamoylphenyl)benzamide]
IC50 (human Nav1.8): 5 nM
HLM: percent unchanged after 30 min [1]: 93%

CCOc1ccc(Oc2cc(C(F)(F)F)ccc2C(=O)Nc2cccc(S(N)(=O)=O)c2)cc1 [Compound 45, 2-(4-ethoxyphenoxy)-N-(3-sulfamoylphenyl)-4-(trifluoromethyl)benzamide]
IC50 (human Nav1.8): 21 nM
HLM: percent unchanged after 30 min [1]: 72%

Cc1ccccc1Oc1ccc(C(F)(F)F)cc1C(=O)Nc1cccc(S(N)(=O)=O)c1 [Compound 32, N-(3-sulfamoylphenyl)-2-(o-tolyloxy)-5-(trifluoromethyl)benzamide]
IC50 (human Nav1.8): 8 nM
HLM: percent unchanged after 30 min [1]: 76%

NS(=O)(=O)c1cccc(NC(=O)c2ccc(C(F)(F)F)cc2Oc2ccccc2Cl)c1 [Compound 73, 2-(2-chlorophenoxy)-N-(3-sulfamoylphenyl)-4-(trifluoromethyl)benzamide]
IC50 (human Nav1.8): 26 nM
HLM: percent unchanged after 30 min [1]: 95%

NS(=O)(=O)c1cccc(NC(=O)c2ccc(C(F)(F)F)cc2Oc2ccc(OC(F)(F)F)cc2)c1 [Compound 51, N-(3-sulfamoylphenyl)-2-(4-(trifluoromethoxy)phenoxy)-4-(trifluoromethyl)benzamide]
IC50 (human Nav1.8): 14 nM
HLM: percent unchanged after 30 min [1]: 89%

N#Cc1ccc(C(=O)Nc2cccc(S(N)(=O)=O)c2)c(Oc2ccc(F)cc2Cl)c1 [Compound 4, 2-(2-chloro-4-fluoro-phenoxy)-4-cyano-N-(3-sulfamoylphenyl)benzamide]
IC50 (human Nav1.8): 27 nM
HLM: percent unchanged after 30 min [1]: 118%

NS(=O)(=O)c1cccc(NC(=O)c2ccc(C(F)(F)F)cc2Oc2ccc(F)cc2)c1 [Compound 1, 2-(4-fluorophenoxy)-N-(3-sulfamoylphenyl)-4-(trifluoromethyl)benzamide]
IC50 (human Nav1.8): 14 nM
HLM: percent unchanged after 30 min [1]: 83%

COc1cc(F)ccc1Oc1cc(C(F)(F)F)ccc1C(=O)Nc1cccc(S(N)(=O)=O)c1 [Compound 14, 2-(4-fluoro-2-methoxyphenoxy)-N-(3-sulfamoylphenyl)-4-(trifluoromethyl)benzamide]
IC50 (human Nav1.8): 5 nM
HLM: percent unchanged after 30 min [1]: 83%

COc1ccc(Oc2cc(C(F)(F)F)ccc2C(=O)Nc2cccc(S(N)(=O)=O)c2)cc1Cl [Compound 67, 2-(3-chloro-4-methoxyphenoxy)-N-(3-sulfamoylphenyl)-4-(trifluoromethyl)benzamide]
IC50 (human Nav1.8): 26 nM
HLM: percent unchanged after 30 min [1]: 91%

COc1ccccc1Oc1ccc(C(F)(F)F)cc1C(=O)Nc1cccc(S(N)(=O)=O)c1 [Compound 34, 2-(2-methoxyphenoxy)-N-(3-sulfamoylphenyl)-5-(trifluoromethyl)benzamide]
IC50 (human Nav1.8): 14 nM
HLM: percent unchanged after 30 min [1]: 96%

Cc1cc(F)ccc1Oc1cccc(C(F)(F)F)c1C(=O)Nc1cccc(S(N)(=O)=O)c1 [Compound 12, 2-(4-fluoro-2-methylphenoxy)-N-(3-sulfamoylphenyl)-6-(trifluoromethyl)benzamide]
IC50 (human Nav1.8): 9 nM
HLM: percent unchanged after 30 min [1]: 94%

COc1ccc(Oc2cc(C(F)(F)F)cc(C(F)(F)F)c2C(=O)Nc2cccc(S(N)(=O)=O)c2)cc1F [Compound 90, 2-(3-fluoro-4-methoxyphenoxy)-N-(3-sulfamoylphenyl)-4,6-bis(trifluoromethyl)benzamide]
IC50 (human Nav1.8): 7 nM
HLM: percent unchanged after 30 min [1]: 92%

Cc1cc(F)ccc1Oc1cc(C(F)(F)F)cc(C(F)(F)F)c1C(=O)Nc1cccc(S(N)(=O)=O)c1 [Compound 93, 2-(4-fluoro-2-methylphenoxy)-N-(3-sulfamoylphenyl)-4,6-bis(trifluoromethyl)benzamide]
IC50 (human Nav1.8): 2 nM
HLM: percent unchanged after 30 min [1]: 96%

Cc1cc(F)ccc1Oc1ccc(C(F)(F)F)cc1C(=O)Nc1cccc(S(N)(=O)=O)c1 [Compound 25, 2-(4-fluoro-2-methylphenoxy)-N-(3-sulfamoylphenyl)-5-(trifluoromethyl)benzamide]
IC50 (human Nav1.8): 4 nM
HLM: percent unchanged after 30 min [1]: 94%

COc1cc(Cl)ccc1Oc1cc(C(F)(F)C(F)(F)F)ccc1C(=O)Nc1cccc(S(N)(=O)=O)c1 [Compound 71, 2-(4-chloro-2-methoxyphenoxy)-4-(perfluoroethyl)-N-(3-sulfamoylphenyl)benzamide]
IC50 (human Nav1.8): 28 nM
HLM: percent unchanged after 30 min [1]: 81%

N#Cc1ccc(Oc2ccc(F)cc2Cl)c(C(=O)Nc2cccc(S(N)(=O)=O)c2)c1 [Compound 11, 2-(2-chloro-4-fluorophenoxy)-5-cyano-N-(3-sulfamoylphenyl)benzamide]
IC50 (human Nav1.8): 24 nM
HLM: percent unchanged after 30 min [1]: 89%

COc1ccc(Oc2cc(C(F)(F)F)ccc2C(=O)Nc2cccc(S(N)(=O)=O)c2)c(OC)c1 [Compound 50, 2-(2,4-dimethoxyphenoxy)-N-(3-sulfamoylphenyl)-4-(trifluoromethyl)benzamide]
IC50 (human Nav1.8): 8 nM
HLM: percent unchanged after 30 min [1]: 72%

COc1c(Cl)cccc1Oc1cc(OC(F)(F)F)ccc1C(=O)Nc1cccc(S(N)(=O)=O)c1 [Compound 66, 2-(3-chloro-2-methoxyphenoxy)-N-(3-sulfamoylphenyl)-4-(trifluoromethoxy)benzamide]
IC50 (human Nav1.8): 7 nM
HLM: percent unchanged after 30 min [1]: 89%

NS(=O)(=O)c1cccc(NC(=O)c2c(Oc3ccccc3Cl)cccc2C(F)(F)F)c1 [Compound 74, 2-(2-chlorophenoxy)-N-(3-sulfamoylphenyl)-6-(trifluoromethyl)benzamide]
IC50 (human Nav1.8): 15 nM
HLM: percent unchanged after 30 min [1]: 102%

COc1cc(F)ccc1Oc1cc(OC(F)(F)F)ccc1C(=O)Nc1cccc(S(N)(=O)=O)c1 [Compound 54, 2-(4-fluoro-2-methoxyphenoxy)-N-(3-sulfamoylphenyl)-4-(trifluoromethoxy)benzamide]
IC50 (human Nav1.8): 5 nM
HLM: percent unchanged after 30 min [1]: 96%

COc1ccc(Oc2cc(Cl)ccc2C(=O)Nc2cccc(S(N)(=O)=O)c2)c(Cl)c1 [Compound 86, 4-chloro-2-(2-chloro-4-methoxyphenoxy)-N-(3-sulfamoylphenyl)benzamide]
IC50 (human Nav1.8): 15 nM
HLM: percent unchanged after 30 min [1]: 82%

COc1ccc(Oc2ccc(C(F)(F)F)cc2C(=O)Nc2cccc(S(N)(=O)=O)c2)cc1F [Compound 28, 2-(3-fluoro-4-methoxyphenoxy)-N-(3-sulfamoylphenyl)-5-(trifluoromethyl)benzamide]
IC50 (human Nav1.8): 16 nM
HLM: percent unchanged after 30 min [1]: 92%

COc1ccccc1Oc1cc(C(F)(F)F)ccc1C(=O)Nc1cccc(S(N)(=O)=O)c1 [Compound 44, 2-(2-methoxyphenoxy)-N-(3-sulfamoylphenyl)-4-(trifluoromethyl)benzamide]
IC50 (human Nav1.8): 20 nM
HLM: percent unchanged after 30 min [1]: 79%

COc1ccc(Oc2cc(Cl)c(Cl)cc2C(=O)Nc2cccc(S(N)(=O)=O)c2)cc1F [Compound 79, 4,5-dichloro-2-(3-fluoro-4-methoxyphenoxy)-N-(3-sulfamoylphenyl)benzamide]
IC50 (human Nav1.8): 4 nM
HLM: percent unchanged after 30 min [1]: 91%
